Test results from patent US20170305922A1, “CARM1 INHIBITORS AND USES THEREOF” (Epizyme, Inc., priority 2014, published 2017).
Values belong to the compound of their own block, whether it stands above or below them.

How the values were obtained:
Human CARM1 (PRMT4) = target: T1, Human CARM1 (PRMT4) (Homo sapiens, UniProt Q86X55); assay: CARM1 enzyme assay on peptide substrates (3H-SAM Flashplate); conditions: Biochemical assay; CARM1 0.25 nM, 3H-SAM 30 nM, peptide 250 nM; read-out: Biochem IC50
T1 construct: Flag-CARM1-His was eluted with 200 ug/ml FLAG peptide in buffer A; made in house; host or cells: HEK 293F cells infected with recombinant baculovirus (pFastBacMam)
T1 sequence (Q86X55 1-585 isoform Q86X55-1): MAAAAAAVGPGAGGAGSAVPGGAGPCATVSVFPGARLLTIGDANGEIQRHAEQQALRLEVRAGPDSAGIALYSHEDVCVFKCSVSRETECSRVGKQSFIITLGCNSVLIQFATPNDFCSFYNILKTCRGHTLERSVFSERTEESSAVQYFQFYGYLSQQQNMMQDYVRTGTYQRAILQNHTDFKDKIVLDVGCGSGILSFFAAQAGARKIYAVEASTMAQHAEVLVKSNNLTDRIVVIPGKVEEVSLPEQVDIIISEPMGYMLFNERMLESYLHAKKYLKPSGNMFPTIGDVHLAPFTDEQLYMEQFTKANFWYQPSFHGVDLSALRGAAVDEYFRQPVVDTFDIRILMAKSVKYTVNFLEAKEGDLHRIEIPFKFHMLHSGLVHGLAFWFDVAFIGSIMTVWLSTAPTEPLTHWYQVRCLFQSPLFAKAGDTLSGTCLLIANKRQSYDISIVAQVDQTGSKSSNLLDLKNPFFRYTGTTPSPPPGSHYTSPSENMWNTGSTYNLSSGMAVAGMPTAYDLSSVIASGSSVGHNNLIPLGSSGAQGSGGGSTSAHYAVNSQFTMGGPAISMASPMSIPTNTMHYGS
Description: S-adenosylmethionine (SAM), S-adenosylhomocysteine (SAH), bicine, Tween20, dimethylsulfoxide (DMSO), bovine skin gelatin (BSG), sodium butyrate and Tris(2-carboxyethyl)phosphine hydrochloride solution (TCEP) were purchased from Sigma-Aldrich at the highest level of purity possible. ^3H-SAM was purchase from American Radiolabeled Chemicals with a specific activity of 80 Ci/mmol. 384-well streptavidin Flashplates were purchased from PerkinElmer.
Peptide representative of human histone H3 residues 16-30 was synthesized with an N-terminal linker-affinity tag motif and a C-terminal amide cap by 21st Century Biochemicals. […] The sequence was Biot-Ahx-[…]-amide and contained a monomethylated arginine at position 26 (SEQ ID NO.:1).
The gene sequence encoding isoform1 containing a deletion of amino acids 539-561 was amplified subsequently and subcloned into pFastBacMam (Viva Biotech).
Recombinant baculovirus were generated according to Bac-to-Bac kit instructions (Life Technologies). Protein over-expression was accomplished by infecting exponentially growing HEK 293F cell culture at 1.3×10^6 cell/ml with virus (MOI=10) in the presence of 8 mM sodium butyrate. Infections were carried out at 37° C. for 48 hours, harvested by centrifugation, and stored at −80° C. for purification.
Column was washed with 500 mM NaCl in buffer A and Flag-CARM1-His was eluted with 200 ug/ml FLAG peptide in buffer A. Pooled fractions were dialyzed in 20 mM Tris, 150 mM NaCl, 5% glycerol and 1 mM DTT, pH 7.8.
The assays were all performed in a buffer consisting of 20 mM Bicine (pH=7.6), 1 mM TCEP, 0.005% BSG, and 0.002% Tween 20, prepared on the day of use. Compounds in 100% DMSO (1 ul) were spotted into a polypropylene 384-well V-bottom plates (Greiner) using a Platemate Plus outfitted with a 384-channel head (Thermo Scientific). DMSO (1 ul) was added to Columns 11, 12, 23, 24, rows A-H for the maximum signal control and 1 ul of SAH, a known product and inhibitor of CARM1, was added to columns 11, 12, 23, 24, rows I-P for the minimum signal control. A cocktail (40 ul) containing the CARM1 enzyme was added by Multidrop Combi (Thermo-Fisher). The compounds were allowed to incubate with CARM1 for 30 min at room temperature, then a cocktail (10 ul) containing ^3H-SAM and peptide was added to initiate the reaction (final volume=51 ul). The final concentrations of the components were as follows: CARM1 was 0.25 nM, ^3H-SAM was 30 nM, peptide was 250 nM, SAH in the minimum signal control wells was 1 mM, and the DMSO concentration was 2%. The assays were stopped by the addition of non-radiolabeled SAM (10 ul) to a final concentration of 300 uM, which dilutes the ^3H-SAM to a level where its incorporation into the peptide substrate is no longer detectable. 50 ul of the reaction in the 384-well polypropylene plate was then transferred to a 384-well Flashplate and the biotinylated peptides were allowed to bind to the streptavidin surface for at least 1 hour before being washed once with 0.1% Tween20 in a Biotek ELx405 plate washer. The plates were then read in a PerkinElmer TopCount plate reader to measure the quantity of ^3H-labeled peptide bound to the Flashplate surface, measured as disintegrations per minute (dpm) or alternatively, referred to as counts per minute (cpm).
where dpm=disintegrations per minute, cmpd=signal in assay well, and min and max are the respective minimum and maximum signal controls.
where top and bottom are the normally allowed to float, but may be fixed at 100 or 0 respectively in a 3-parameter fit. The Hill Coefficient normally allowed to float but may also be fixed at 1 in a 3-parameter fit. Y is the % inhibition and X is the compound concentration.

[1] = system: asymmetric di-methyl PABP1 in RKO cells; assay: RKO methylation assay: In Cell Western (ICW) for asymmetric di-methyl PABP1 (PABP1me2a); conditions: Homo sapiens, RKO, 48 h, Cellular-based (PABP1me2a) ICW (In Cell Western) assay
Description: RKO adherent cells were purchased from ATCC (American Type Culture Collection), Manassas, Va., USA. DMEM/Glutamax medium, penicillin-streptomycin, heat inactivated fetal bovine serum, 0.05% trypsin and D-PBS were purchased from Life Technologies, Grand Island, N.Y., USA. Odyssey blocking buffer, 800CW goat anti-rabbit IgG (H+L) antibody, and Licor Odyssey infrared scanner were purchased from Licor Biosciences, Lincoln, Nebr., USA. Asymmetric di-methyl PABP1 antibody was purchased from Cell Signaling Technology, Danvers, Mass., USA. Methanol was purchased from VWR, Franklin, Mass., USA. 10% Tween 20 was purchased from KPL, Inc., Gaithersburg, Md., USA. Paraformaldehyde (PFA) was purchased from EM Sciences. DRAQ5 was purchased from Biostatus Limited, Leicestershire, UK.
RKO adherent cells were maintained in growth medium (DMEM/Glutamax medium supplemented with 10% v/v heat inactivated fetal bovine serum and 100 units/mL penicillin-streptomycin) and cultured at 37° C. under 5% CO2.
Cell treatment, In Cell Western (ICW) for detection of asymmetric di-methyl PABP1 and DNA content: RKO cells were seeded in assay medium at a concentration of 30,000 cells per mL to a poly-D-lysine coated 384 well culture plate (BD Biosciences 356697) with 50 μL per well. Compound (100 nL) from a 96-well source plate was added directly to 384 well cell plate. Plates were incubated at 37° C., 5% CO2 for 48 hours. After two days of incubation, plates were brought to room temperature outside of the incubator for ten minutes and blotted on paper towels to remove cell media. Cells were fixed for 20 minutes at room temperature by adding 50 ul of 8% PFA followed by aspiration of supernatant with the Biotek EL406 plate washer. Cells were then permeabilized by addition of 50 μL of ice cold 100% methanol directly to each well and incubated for 30 min at room temperature. After 30 min, plates were transferred to a Biotek EL406 plate washer and washed 2 times with 100 μL per well of wash buffer (1×PBS). Next 60 μL per well of Odyssey blocking buffer (Odyssey Buffer with 0.1% Tween 20 (v/v)) were added to each plate and incubated 1 hour at room temperature. Blocking buffer was removed and 20 μL per well of primary antibody was added (asymmetric-methyl PABP1) diluted 1:400 in Odyssey buffer with 0.1% Tween 20 (v/v)) and plates were incubated overnight (16 hours) at 4° C. Plates were washed 5 times with 100 μL per well of wash buffer. Next 20 μL per well of secondary antibody was added (1:800 800CW goat anti-rabbit IgG (H+L) antibody, 1:2000 DRAQ5 in Odyssey buffer with 0.1% Tween 20 (v/v)) and incubated for 1 hour at room temperature. The plates were washed 5 times with 100 μL per well wash buffer then 2 times with 100 μL per well of water. Plates were allowed to dry at room temperature then imaged on the Licor Odyssey machine which measures integrated intensity at 700 nm and 800 nm wavelengths. Both 700 and 800 channels were scanned.
First, the ratio for each well was determined by:
Each plate included fourteen control wells of DMSO only treatment (minimum inhibition) as well as fourteen control wells for maximum inhibition treated with 20 μM of a reference compound. The average of the ratio values for each control type was calculated and used to determine the percent […] for each test well in the plate. Reference compound was serially diluted three-fold in DMSO for a total of nine test concentrations, beginning at 20 μM.
Percent inhibition was determined and IC50 curves were generated using triplicate wells per concentration of compound.

SMILES: CNC[C@@H](O)COc1ccc(Cl)c(-c2nc(-c3c(C)noc3C)c(C)c(N3CC4=C(CN(C)CC4)C3)n2)c1 [Example 237]
IC50 (Human CARM1 (PRMT4)): 0.0006 µM | IC50 [1]: 0.157 µM

SMILES: CNC[C@@H](O)COc1ccc(Cl)c(-c2nc(-c3c(C)noc3C)c(C)c(N3CC(C#N)(COC)C3)n2)c1 [Example 286]
IC50 (Human CARM1 (PRMT4)): 0.00417 µM | IC50 [1]: 0.282 µM

SMILES: CNC[C@@H](O)COc1ccc(Cl)c(-c2nc(-c3c(C)c(Br)nn3C)c(C)c(N3CC(CCl)(CNCC(F)(F)F)C3)n2)c1 [Example 304]
IC50 (Human CARM1 (PRMT4)): 0.00681 µM | IC50 [1]: 0.142 µM

SMILES: CNC[C@@H](O)COc1ccc(Cl)c(-c2nc(-c3c(C)noc3C)c(C)c(N3Cc4c(n5c(nc4=O)CCC5)C3)n2)c1 [Example 47]
IC50 (Human CARM1 (PRMT4)): 0.0063 µM | IC50 [1]: > 20 µM

SMILES: CNC[C@@H](O)COc1ccc(Cl)c(-c2nc(-c3c(C)noc3C)c(C)c(N3CC4=C(CN(C(=O)OC)C4)C3)n2)c1 [Example 55]
IC50 (Human CARM1 (PRMT4)): 0.0036 µM | IC50 [1]: 0.013 µM

Continued by falling IC50 (Human CARM1 (PRMT4)), values first:

IC50 (Human CARM1 (PRMT4)): 0.12 µM | IC50 [1]: 1.82 µM
SMILES: Cc1noc(C)c1-c1nc(-c2cc(OC[C@H](O)CN(C)C=O)ccc2Cl)nc(N2Cc3cccnc3C2)c1C [Example 308]

IC50 (Human CARM1 (PRMT4)): 0.0108 µM | IC50 [1]: 0.368 µM
SMILES: CNC[C@@H](O)COc1ccc(Cl)c(-c2nc(-c3c(C)noc3C)c(C)c(N3C[C@@H]4C[C@H]3CN4C(=O)OC)n2)c1 [Example 104]

IC50 (Human CARM1 (PRMT4)): 0.0054 µM | IC50 [1]: 0.696 µM
SMILES: CC[C@H]1CN(c2nc(-c3cc(OC[C@H](O)CNC)ccc3Cl)nc(-c3c(C)noc3C)c2C)CCN1C(=O)OC [Example 206]

IC50 (Human CARM1 (PRMT4)): 0.0048 µM | IC50 [1]: 0.052 µM
SMILES: CNC[C@@H](O)COc1ccc(Cl)c(-c2nc(-c3c(C)noc3C)c(C)c(N3Cc4cnn(CCOC)c4C3)n2)c1 [Example 110]

IC50 (Human CARM1 (PRMT4)): 0.0039 µM | IC50 [1]: 0.389 µM
SMILES: CNC[C@@H](O)COc1cccc(-c2nc(-c3c(C)cnn3C)c(C)c(N3Cc4cncnc4C3)n2)c1 [Example 60]

IC50 (Human CARM1 (PRMT4)): 0.0017 µM | IC50 [1]: 0.075 µM
SMILES: CNC[C@@H](O)COc1ccc(Cl)c(-c2nc(-c3c(C)noc3C)c(C)c(N3CC4=C(C3)CN(C3CC3)C4)n2)c1 [Example 211]
